Experimental data as given in article PMC6479714, “Multiplex Analysis Platform for Endocrine Disruption Prediction Using Zebrafish” (International Journal of Molecular Sciences, 2019).

Columns and labels:
vitellogenin 1 (vtg1) = test: vtg1 gene expression (qPCR) in exposed zebrafish embryos
Method: (§1) Twenty embryos per treatment and replicate were exposed to 3–7 different concentrations of chemical in glass. […] Between 3 and 6 biological replicates were performed per compound and condition in, at least, two independent experiments.
(§2) At 120 hpf, 20 embryos per condition and replicate were pooled and homogenized in TRIreagent and total RNA extracted following the manufacturer’s protocol. Total RNA concentration was estimated by spectrophotometric absorption at 260 nm in a NanoDrop Spectrophotometer ND-1000 (NanoDrop Technologies; Wilmington, DE, USA). One hundred nanograms of RNA were retrotranscribed to cDNA by reverse transcriptase (Superscript III RT-Enzyme, Invitrogen, Carlsbad, CA, USA) and stored at −20 °C. Aliquots 10-times diluted of cDNA were used to quantify the amounts of specific transcripts in a Lightcycler® 480 system (Roche, Basel, Switzerland) by the SYBR GREEN method. Annealing temperature used in amplification reactions was 60 °C in all cases. […] Relative expression levels were quantified using the ΔΔCt method [82] and ef1a as reference gene [83]

[1] = tested on: brain aromatase (cyp19a1b); test: cyp19a1b gene expression (qPCR) in exposed zebrafish embryos; assay type: in vivo, zebrafish (Danio rerio); conditions: exposed 48–120 hpf
Method: as §1, §2

carp hepatocytes = tested on: carp hepatocytes; design: method as in PMID 10478856; conditions: concentrations up to 100 µM; cited from earlier work
cyp19a1b - vtg1 mRNA = test: estrogenic markers considered together (cyp19a1b - vtg1 mRNA), zebrafish embryos; conditions: Danio rerio, read-out: EC50 (cyp19a1b - vtg1 mRNA), class symbol
Method: as §1, §2

cyp19a1b - fluorescence = conditions: 0-96 h; ref [3] (supplement list: Brion 2012); cited from earlier work
thyroid peroxidase (tpo) = test: tpo gene expression (qPCR) in exposed zebrafish embryos; assay type: in vivo, zebrafish (Danio rerio); conditions: Danio rerio, read-out: EC50 tpo
Method: as §1, §2

vtg1 - mRNA = conditions: 6-96 h, cited from earlier work

O=S1OCC2C(CO1)C1(Cl)C(Cl)=C(Cl)C2(Cl)C1(Cl)Cl (centres unmarked) [END, endosulfan]
FI vtg1 at the most effective concentration (vitellogenin 1 (vtg1); 4 µM, compared to controls, downregulation): 0.35 | EC50 (vitellogenin 1 (vtg1); Danio rerio, read-out: EC50 vtg1): 330 nM | LogEC50 (vtg1 mRNA) (vitellogenin 1 (vtg1); log of EC50 in μM, 48-120 h, our study): -0.4815 | downregulation of vtg1 expression compared to controls (vitellogenin 1 (vtg1); most effective concentration (4 µM)): more than 50% | effect on expression of cyp19a1b [1]: not affecting expression | induction of vitellogenesis in carp hepatocytes (carp hepatocytes): not able to induce vitellogenesis | EC50 (cyp19a1b - vtg1 mRNA): > 4000 nM | EC50 (cyp19a1b - fluorescence), class symbol (cyp19a1b - fluorescence): n.e. | EC50 (thyroid peroxidase (tpo)): 60 nM | EC50 (vtg1 - mRNA; ref [25] (supplement list: Moon 2016), read-out: EC50 (vtg mRNA)): 1960 nM | LogEC50 (vtg mRNA) (vtg1 - mRNA; log of EC50 in μM, ref [25] (supplement list)): 0.2923
